Measured values taken from patent US6794377B2, “Ortho, ortho-substituted nitrogen-containing bisaryl compounds, processes for their preparation, their use as medicaments, and pharmaceutical preparation comprising them” (Aventis Pharma Deutschland GmbH, priority 2000, dated 2004).
Where two headings read alike, the source gives them in different places.

Target: T1, Kv1.5 channels from humans (Homo sapiens, UniProt P22460)
T1 construct: expressed in transfected cells; host or cells: Xenopus laevis oocytes injected with in vitro synthesized RNA
T1 sequence (P22460 whole entry): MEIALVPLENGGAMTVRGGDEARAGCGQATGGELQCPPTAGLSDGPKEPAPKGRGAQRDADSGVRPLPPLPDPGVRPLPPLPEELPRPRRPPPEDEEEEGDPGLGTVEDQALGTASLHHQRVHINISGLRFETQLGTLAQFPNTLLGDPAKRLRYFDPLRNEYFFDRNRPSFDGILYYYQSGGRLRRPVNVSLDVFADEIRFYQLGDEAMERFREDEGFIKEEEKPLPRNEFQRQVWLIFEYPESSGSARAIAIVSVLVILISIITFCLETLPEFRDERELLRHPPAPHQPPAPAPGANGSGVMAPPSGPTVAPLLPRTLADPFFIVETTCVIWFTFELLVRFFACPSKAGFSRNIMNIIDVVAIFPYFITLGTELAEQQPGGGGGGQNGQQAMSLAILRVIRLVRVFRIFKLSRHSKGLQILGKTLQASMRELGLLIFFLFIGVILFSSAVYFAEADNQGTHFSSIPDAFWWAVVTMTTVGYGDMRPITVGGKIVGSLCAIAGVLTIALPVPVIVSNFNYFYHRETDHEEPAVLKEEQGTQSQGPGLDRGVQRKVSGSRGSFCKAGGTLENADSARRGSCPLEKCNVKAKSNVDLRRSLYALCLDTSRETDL
Assay: Kv1.5 currents in Xenopus oocytes, 2-microelectrode voltage clamp
Assay type: cell-based
Settings: human Kv1.5 expressed in Xenopus laevis oocytes, voltage jumps to 0 mV and 40 mV lasting 500 ms, room temperature, Hill equation
Procedure: Kv1.5 channels from humans were expressed in Xenopus oocytes. To this end, oocytes from Xenopus laevis were first isolated and defolliculated. RNA coding for Kv1.5 synthesized in vitro was then injected into these oocytes. After a Kv1.5 protein expression for 1-7 days, Kv1.5 currents were measured on the oocytes using the 2-microelectrode voltage clamp technique. The Kv1.5 channels were in this case as a rule activated using voltage jumps to 0 mV and 40 mV lasting 500 ms. The bath was rinsed using a solution of the following composition: NaCl 96 mM, KCl 2 mM, CaCl2 1.8 mM, MgCl2 1 mM, HEPES 5 mM (titrated with NaOH to pH 7.4). These experiments were carried out at room temperature. The following were employed for data acquisition and analysis: Gene clamp amplifier (Axon Instruments, Foster City, USA) and MacLab D/A converter and software (ADinstruments, Castle Hill, Australia). The substances according to the invention were tested by adding them to the bath solution in different concentrations. The effects of the substances were calculated as the percentage inhibition of the Kv1.5 control current which was obtained when no substance was added to the solution. The data were then extrapolated using the Hill equation in order to determine the inhibition concentrations IC50 for the respective substances.

| SMILES | IC50 (read-out: IC50) [µM] | IC50 |
| --- | --- | --- |
| CC(C)CCNC(=O)c1ccncc1-c1ccccc1CNC(=O)OC(C)(C)C [Example 3] | < 100 | – |
| CC(C)(C)OC(=O)NCc1ccccc1-c1cnccc1C(=O)NCc1ccc(F)cc1F [Example 4] | < 100 | – |
| CC(C)CCNC(=O)c1cccnc1-c1ccccc1CNC(=O)OC(C)(C)C [Example 5] | < 100 | – |
| CC(C)(C)OC(=O)NCc1ccccc1-c1ncccc1C(=O)NCc1ccc(F)cc1F [Example 6] | < 100 | – |
| CC(C)CCNC(=O)c1nccnc1-c1ccccc1CNC(=O)OC(C)(C)C [Example 7] | < 100 | – |
| CC(C)(C)OC(=O)NCc1ccccc1-c1nccnc1C(=O)NCc1ccc(F)cc1F [Example 8] | < 100 | – |
| CC(C)CCNC(=O)c1ccccc1-c1ccncc1CNC(=O)OC(C)(C)C [Example 9] | < 100 | – |
| CC(C)C[C@H](NC(=O)c1nccnc1-c1ccccc1CNC(=O)OC(C)(C)C)C(N)=O [Example 11] | – | inactive |
| COc1ccc(NC(=O)c2nccnc2-c2ccccc2CNC(=O)OC(C)(C)C)cc1 [Example 12] | < 100 | – |
| CC(C)CCNC(=O)c1ncccc1-c1ccccc1CNC(=O)OCc1ccccc1 [Example 18, Benzyl {2-[2-(3-methylbutylcarbamoyl)pyridin-3-yl]benzyl}carbamate] | 2.6 | – |
| C[C@H](OC(=O)NCc1ccccc1-c1cccnc1C(=O)NCCc1ccccn1)c1ccccc1 [Example 19] | 0.6 | – |
| CC(C)C[C@H](NC(=O)c1ncccc1-c1ccccc1CNC(=O)O[C@@H](C)c1ccccc1)C(N)=O [Example 20] | 1.2 | – |
| COc1ccc(NC(=O)c2ncccc2-c2ccccc2CNC(=O)O[C@@H](C)c2ccccc2)cc1 [Example 21] | 2 | – |
| C[C@H](OC(=O)NCc1ccccc1-c1cccnc1C(=O)NCC1CC1)c1ccccc1 [Example 23] | 0.4 | – |
| CC(C)CCNC(=O)c1ccncc1-c1ccccc1CNC(=O)OCc1ccccc1 [Example 26] | < 100 | – |
| CC(C)CCNC(=O)c1cccnc1-c1ccccc1CNC(=O)OCc1ccccc1 [Example 28] | 9 | – |
| O=C(NCc1ccccc1-c1ncccc1C(=O)NCc1ccc(F)cc1F)OCc1ccccc1 [Example 29] | 7.6 | – |
| CC(C)C[C@H](NC(=O)c1nccnc1-c1ccccc1CNC(=O)O[C@@H](C)c1ccccc1)C(N)=O [Example 31] | < 100 | – |
| C[C@H](OC(=O)NCc1cnccc1-c1ccccc1C(=O)NCC1CC1)c1ccccc1 [Example 33] | 1.7 | – |
| C[C@H](OC(=O)NCc1cnccc1-c1ccccc1C(=O)NCCc1cccnc1)c1ccccc1 [Example 34] | 4.7 | – |

The remaining lines, values ahead:

| IC50 (read-out: IC50) [µM] | IC50 | SMILES |
| --- | --- | --- |
| 0.4 | – | C[C@H](CC(=O)NCc1ccccc1-c1cccnc1C(=O)NCC1CC1)c1ccccc1 [Example 35, 3-{2-(R)-[(3-Phenylbutyrylamino)methyl]phenyl}pyridine-2-carboxylate cyclopropylmethylamide] |
| < 100 | – | COc1ccc(CC(=O)NCc2ccccc2-c2cccnc2C(=O)NCCc2ccccn2)cc1 [Example 36] |
| < 100 | – | CCOc1ccc(C(=O)NCc2ccccc2-c2cccnc2C(=O)NCCc2ccccn2)cc1 [Example 37] |
| 5.6 | – | COc1ccc(CCC(=O)NCc2ccccc2-c2cccnc2C(=O)NCCc2ccccn2)cc1 [Example 38] |
| < 100 | – | COc1ccc(CC(=O)NCc2ccccc2-c2cccnc2C(=O)N[C@@H](CC(C)C)C(N)=O)cc1 [Example 39] |
| < 100 | – | CCOc1ccc(C(=O)NCc2ccccc2-c2cccnc2C(=O)N[C@@H](CC(C)C)C(N)=O)cc1 [Example 40] |
| < 100 | – | COc1ccc(CCC(=O)NCc2ccccc2-c2cccnc2C(=O)N[C@@H](CC(C)C)C(N)=O)cc1 [Example 41] |
| < 100 | – | COc1ccc(CC(=O)NCc2ccccc2-c2cccnc2C(=O)Nc2ccc(OC)cc2)cc1 [Example 42] |
| < 100 | – | CCOc1ccc(C(=O)NCc2ccccc2-c2cccnc2C(=O)Nc2ccc(OC)cc2)cc1 [Example 43] |
| 6.7 | – | COc1ccc(CCC(=O)NCc2ccccc2-c2cccnc2C(=O)Nc2ccc(OC)cc2)cc1 [Example 44] |
| 0.5 | – | CC(CC(=O)NCc1ccccc1-c1cccnc1C(=O)NCCc1ccccn1)c1ccc(F)cc1 (centres unmarked) [Example 45] |
| 2.7 | – | C[C@H](CC(=O)NCc1ccccc1-c1cccnc1C(=O)NCc1cccnc1)c1ccccc1 [Example 46] |
| 3.1 | – | CC(CC(=O)NCc1ccccc1-c1cccnc1C(=O)NCC1CC1)c1ccc(F)cc1 (centres unmarked) [Example 47] |
| 2.4 | – | Cc1onc(-c2ccccc2)c1C(=O)NCc1ccccc1-c1cccnc1C(=O)NCC1CC1 [Example 48] |
| 0.9 | – | C[C@H](CC(=O)NCc1ccccc1-c1cccnc1C(=O)NCCc1ccccn1)c1ccccc1 [Example 49] |
| < 100 | – | COc1ccc(CC(=O)NCc2ccccc2-c2ncccc2C(=O)NCc2ccc(F)cc2F)cc1 [Example 51] |
| – | inactive | COc1ccc(CC(=O)NCc2ccccc2-c2nccnc2C(=O)NCCc2ccccn2)cc1 [Example 53] |
| < 100 | – | CC(CC(=O)NCc1cnccc1-c1ccccc1C(=O)NCC1CC1)c1ccc(F)cc1 (centres unmarked) [Example 54] |
| 3.8 | – | O=C(Cc1ccc(OC(F)(F)F)cc1)NCc1cnccc1-c1ccccc1C(=O)NCC1CC1 [Example 55] |
| 6.1 | – | O=C(Cc1ccc(OC(F)(F)F)cc1)NCc1cnccc1-c1ccccc1C(=O)NCCc1cccnc1 [Example 56] |
| 0.7 | – | C[C@H](OC(=O)NCc1ccccc1-c1cccnc1C(=O)NCCc1cccnc1)c1ccccc1 [Example 58] |
| 3.2 | – | CC(CC(=O)NCc1ccccc1-c1cccnc1C(=O)NCCc1cccnc1)c1ccc(F)cc1 (centres unmarked) [Example 59] |
| 3.1 | – | O=C(CCc1cccc(OC(F)(F)F)c1)NCc1ccccc1-c1cccnc1C(=O)NCCc1cccnc1 [Example 60] |
| 1.7 | – | CC(C)(C(=O)NCc1ccccc1-c1cccnc1C(=O)NCC1CC1)c1ccc(Cl)cc1 [Example 61] |
| 1.8 | – | O=C(CCc1cccc(OC(F)(F)F)c1)NCc1ccccc1-c1cccnc1C(=O)NCC1CC1 [Example 62] |
| 1.8 | – | O=C(CCc1cccc(OC(F)(F)F)c1)NCc1ccccc1-c1cccnc1C(=O)NCCc1ccccn1 [Example 63] |
| 0.9 | – | CC(C)(C(=O)NCc1ccccc1-c1cccnc1C(=O)NCCc1ccccn1)c1ccc(Cl)cc1 [Example 64] |
| < 100 | – | C[C@@H](O)CNC(=O)c1ncccc1-c1ccccc1CNC(=O)C(C)(C)c1ccc(Cl)cc1 [Example 65] |
| < 100 | – | C[C@@H](O)CNC(=O)c1ncccc1-c1ccccc1CNC(=O)CCc1cccc(OC(F)(F)F)c1 [Example 66] |
| < 100 | – | C[C@H](CC(=O)NCc1ccccc1-c1cccnc1C(=O)NC[C@@H](C)O)c1ccccc1 [Example 67] |
